Experimental data: BigSolDB 2.1

Fc1c(I)c(F)c(I)c(F)c1I
Details	solubility (mole fraction)
in 1,2-dichloroethane, 290.15 K	2.33e-05
in 1,2-dichloroethane, 295.15 K	4.22e-05
in 1,2-dichloroethane, 299.15 K	6.13e-05
in 1,2-dichloroethane, 302.15 K	8.17e-05
in 1,2-dichloroethane, 305.15 K	0.000106
in 1,2-dichloroethane, 308.15 K	0.000131
in 1,2-dichloroethane, 311.15 K	0.000153
in 1,2-dichloroethane, 314.15 K	0.000181
in 1,2-dichloroethane, 317.15 K	0.000207
in 1,2-dichloroethane, 320.15 K	0.000224
in 1,2-dichloroethane, 325.15 K	0.000242
in 1,2-dichloroethane, 330.15 K	0.000263
in 1,4-dioxane, 290.15 K	0.00028
in 1,4-dioxane, 295.15 K	0.000334
in 1,4-dioxane, 299.15 K	0.000387
in 1,4-dioxane, 302.15 K	0.000413
in 1,4-dioxane, 305.15 K	0.000456
in 1,4-dioxane, 308.15 K	0.000506
in 1,4-dioxane, 311.15 K	0.000553
in 1,4-dioxane, 314.15 K	0.000593
in 1,4-dioxane, 317.15 K	0.000641
in 1,4-dioxane, 320.15 K	0.000697
in 1,4-dioxane, 325.15 K	0.000773
in 1,4-dioxane, 330.15 K	0.00088
in THF, 290.25 K	0.00478
in THF, 295.45 K	0.00497
in THF, 299.85 K	0.00511
in THF, 305.15 K	0.00534
in THF, 310.25 K	0.00555
in THF, 315.35 K	0.00578
in THF, 320.15 K	0.00601
in THF, 326.15 K	0.0063
in THF, 330.35 K	0.00648
in acetone, 290.15 K	2.02e-05
in acetone, 295.15 K	3.22e-05
in acetone, 299.15 K	4.55e-05
in acetone, 302.15 K	5.89e-05
in acetone, 305.15 K	7.48e-05
in acetone, 308.15 K	9.01e-05
in acetone, 311.15 K	0.000107
in acetone, 314.15 K	0.000127
in acetone, 317.15 K	0.000144
in acetone, 320.15 K	0.000162
in acetone, 325.15 K	0.000182
in acetone, 330.15 K	0.000202
in acetonitrile, 290.35 K	0.00382
in acetonitrile, 295.85 K	0.00415
in acetonitrile, 301.55 K	0.00469
in acetonitrile, 306.95 K	0.00536
in acetonitrile, 310.15 K	0.00568
in acetonitrile, 316.95 K	0.00636
in acetonitrile, 321.55 K	0.00722
in acetonitrile, 327.35 K	0.00842
in acetonitrile, 332.15 K	0.00917
in ethanol, 290.15 K	0.00057
in ethanol, 295.15 K	0.000735
in ethanol, 299.15 K	0.000874
in ethanol, 302.15 K	0.000962
in ethanol, 305.15 K	0.00108
in ethanol, 308.15 K	0.00119
in ethanol, 311.15 K	0.00128
in ethanol, 314.15 K	0.00138
in ethanol, 317.15 K	0.00149
in ethanol, 320.15 K	0.0016
in ethanol, 325.15 K	0.00174
in ethanol, 330.15 K	0.00193
in ethyl acetate, 290.15 K	0.000485
in ethyl acetate, 295.15 K	0.000621
in ethyl acetate, 299.15 K	0.000756
in ethyl acetate, 302.15 K	0.00086
in ethyl acetate, 305.15 K	0.000976
in ethyl acetate, 308.15 K	0.00107
in ethyl acetate, 311.15 K	0.00118
in ethyl acetate, 314.15 K	0.00128
in ethyl acetate, 317.15 K	0.00136
in ethyl acetate, 320.15 K	0.00145
in ethyl acetate, 325.15 K	0.00155
in ethyl acetate, 330.15 K	0.00167
in isopropanol, 291.25 K	0.00214
in isopropanol, 296.35 K	0.00291
in isopropanol, 301.45 K	0.00369
in isopropanol, 306.45 K	0.00432
in isopropanol, 311.45 K	0.00523
in isopropanol, 316.55 K	0.00598
in isopropanol, 321.45 K	0.00681
in isopropanol, 326.85 K	0.00745
in isopropanol, 331.55 K	0.00802
in methanol, 290.15 K	2.24e-05
in methanol, 295.15 K	3.71e-05
in methanol, 299.15 K	5.15e-05
in methanol, 302.15 K	6.58e-05
in methanol, 305.15 K	8.12e-05
in methanol, 308.15 K	9.61e-05
in methanol, 311.15 K	0.00011
in methanol, 314.15 K	0.000121
in methanol, 317.15 K	0.000131
in methanol, 320.15 K	0.00014
in methanol, 325.15 K	0.00015
in methanol, 330.15 K	0.000154
in n-hexane, 289.25 K	0.0059
in n-hexane, 293.55 K	0.00643
in n-hexane, 298.85 K	0.00732
in n-hexane, 303.85 K	0.00818
in n-hexane, 308.95 K	0.00908
in n-hexane, 313.75 K	0.0101
in n-hexane, 318.55 K	0.0116
in n-hexane, 324.25 K	0.0134
in n-hexane, 329.35 K	0.0149
in n-propanol, 291.25 K	0.00216
in n-propanol, 296.35 K	0.00274
in n-propanol, 301.35 K	0.00325
in n-propanol, 306.35 K	0.00366
in n-propanol, 311.65 K	0.00417
in n-propanol, 316.55 K	0.00482
in n-propanol, 321.55 K	0.00531
in n-propanol, 326.45 K	0.00585
in n-propanol, 331.45 K	0.00643
in toluene, 290.15 K	0.000169
in toluene, 295.15 K	0.000217
in toluene, 299.15 K	0.000261
in toluene, 302.15 K	0.000294
in toluene, 305.15 K	0.000329
in toluene, 308.15 K	0.000368
in toluene, 311.15 K	0.000404
in toluene, 314.15 K	0.000444
in toluene, 317.15 K	0.000479
in toluene, 320.15 K	0.000515
in toluene, 325.15 K	0.000573
in toluene, 330.15 K	0.000623
